Data published in the kinase profiling compilation of Christmann-Franck et al. (2016).

How the values were obtained:
Test in all cases: radiometric filter-binding kinase assay, Kinase HotSpot
Conditions in all cases: compound 0.5 µM; ATP 10 µM
DYRK2 (human) = DYRK2 (human) (UniProt Q92630)
MAPK3 (human) = MAPK3 (human) (UniProt P27361)
ACVR1B (human) = ACVR1B (human) (UniProt P36896)
FGR (human) = FGR (human) (UniProt P09769)
PRKCZ (human) = PRKCZ (human) (UniProt Q05513)
MAP3K8 (human) = MAP3K8 (human) (UniProt P41279)
Sequence of MAP3K8 (human) (P41279 whole entry, looked up): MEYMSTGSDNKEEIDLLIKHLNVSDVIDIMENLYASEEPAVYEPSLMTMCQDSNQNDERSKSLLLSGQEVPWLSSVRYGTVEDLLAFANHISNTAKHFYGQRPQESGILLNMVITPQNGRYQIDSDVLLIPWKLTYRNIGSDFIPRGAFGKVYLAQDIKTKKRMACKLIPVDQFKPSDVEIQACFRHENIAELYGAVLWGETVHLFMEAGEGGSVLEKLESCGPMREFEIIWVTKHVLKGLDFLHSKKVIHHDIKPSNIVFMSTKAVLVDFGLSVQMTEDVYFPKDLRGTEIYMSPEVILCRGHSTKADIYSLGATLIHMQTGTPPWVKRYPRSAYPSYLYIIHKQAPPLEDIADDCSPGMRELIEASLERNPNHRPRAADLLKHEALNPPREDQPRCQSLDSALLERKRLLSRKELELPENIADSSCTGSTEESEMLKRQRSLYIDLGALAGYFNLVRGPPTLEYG

CAMK2G (human) = CAMK2G (human) (UniProt Q13555)
Sequence of CAMK2G (human) (Q13555 whole entry, looked up): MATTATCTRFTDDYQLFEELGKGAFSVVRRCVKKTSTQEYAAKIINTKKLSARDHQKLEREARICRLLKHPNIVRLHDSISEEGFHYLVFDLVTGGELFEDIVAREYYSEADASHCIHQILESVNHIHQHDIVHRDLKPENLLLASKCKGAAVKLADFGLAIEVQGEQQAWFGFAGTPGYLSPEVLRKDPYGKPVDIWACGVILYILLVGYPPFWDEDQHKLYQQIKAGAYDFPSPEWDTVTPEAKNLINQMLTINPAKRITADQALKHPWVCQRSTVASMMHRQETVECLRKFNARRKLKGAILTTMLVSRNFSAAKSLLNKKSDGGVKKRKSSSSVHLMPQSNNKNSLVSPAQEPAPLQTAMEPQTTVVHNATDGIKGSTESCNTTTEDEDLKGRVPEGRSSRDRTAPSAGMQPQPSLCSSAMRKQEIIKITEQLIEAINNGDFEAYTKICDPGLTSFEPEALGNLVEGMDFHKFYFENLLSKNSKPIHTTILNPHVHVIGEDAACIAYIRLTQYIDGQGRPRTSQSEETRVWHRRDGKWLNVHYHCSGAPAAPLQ

PNCK (human) = PNCK (human) (UniProt Q6P2M8)
CSNK1G2 (human) = CSNK1G2 (human) (UniProt P78368)
Sequence of CSNK1G2 (human) (P78368 whole entry, looked up): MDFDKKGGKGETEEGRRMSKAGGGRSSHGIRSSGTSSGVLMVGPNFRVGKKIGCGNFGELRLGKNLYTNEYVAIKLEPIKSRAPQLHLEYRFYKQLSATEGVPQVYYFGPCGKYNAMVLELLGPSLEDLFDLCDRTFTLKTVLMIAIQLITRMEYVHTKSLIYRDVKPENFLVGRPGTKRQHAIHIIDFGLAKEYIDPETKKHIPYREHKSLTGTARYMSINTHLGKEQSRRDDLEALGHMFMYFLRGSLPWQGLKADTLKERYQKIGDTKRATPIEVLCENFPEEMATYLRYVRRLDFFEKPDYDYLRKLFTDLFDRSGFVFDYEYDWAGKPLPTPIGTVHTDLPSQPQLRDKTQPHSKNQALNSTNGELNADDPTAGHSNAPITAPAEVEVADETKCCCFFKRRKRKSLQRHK

SGK2 (human) = SGK2 (human) (UniProt Q9HBY8)
MET (human) = MET (human) (UniProt P08581)
BTK (human) = BTK (human) (UniProt Q06187)
ROS1 (human) = ROS1 (human) (UniProt P08922)
WNK2 (human) = WNK2 (human) (UniProt Q9Y3S1)
MAP3K7 TAB1 (human) = MAP3K7 TAB1 (human) (UniProt O43318+Q15750)
ULK1 (human) = ULK1 (human) (UniProt O75385)
SRC (human) = SRC (human) (UniProt P12931)
PLK3 (human) = PLK3 (human) (UniProt Q9H4B4)
PAK1 (human) = PAK1 (human) (UniProt Q13153)
Sequence of PAK1 (human) (Q13153 whole entry, looked up): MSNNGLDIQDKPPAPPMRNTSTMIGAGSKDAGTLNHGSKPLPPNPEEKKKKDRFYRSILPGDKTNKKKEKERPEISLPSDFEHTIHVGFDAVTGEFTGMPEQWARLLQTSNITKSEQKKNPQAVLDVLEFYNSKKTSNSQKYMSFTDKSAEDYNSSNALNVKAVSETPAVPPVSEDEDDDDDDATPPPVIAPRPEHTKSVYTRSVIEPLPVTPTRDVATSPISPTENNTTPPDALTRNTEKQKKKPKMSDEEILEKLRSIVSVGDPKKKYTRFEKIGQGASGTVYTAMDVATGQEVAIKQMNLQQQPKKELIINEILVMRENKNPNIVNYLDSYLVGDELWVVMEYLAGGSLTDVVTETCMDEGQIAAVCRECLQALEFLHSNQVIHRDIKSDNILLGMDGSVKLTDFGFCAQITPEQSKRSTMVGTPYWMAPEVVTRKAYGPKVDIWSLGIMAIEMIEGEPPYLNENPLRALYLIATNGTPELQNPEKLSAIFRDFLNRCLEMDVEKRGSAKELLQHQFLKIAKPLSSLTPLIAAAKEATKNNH

IKBKE (human) = IKBKE (human) (UniProt Q14164)
MUSK (human) = MUSK (human) (UniProt O15146)
MAPK11 (human) = MAPK11 (human) (UniProt Q15759)
ALK (human) = ALK (human) (UniProt Q9UM73)
MAP4K2 (human) = MAP4K2 (human) (UniProt Q12851)
AKT1 (human) = AKT1 (human) (UniProt P31749)
KDR (human) = KDR (human) (UniProt P35968)
Sequence of KDR (human) (P35968 whole entry, looked up): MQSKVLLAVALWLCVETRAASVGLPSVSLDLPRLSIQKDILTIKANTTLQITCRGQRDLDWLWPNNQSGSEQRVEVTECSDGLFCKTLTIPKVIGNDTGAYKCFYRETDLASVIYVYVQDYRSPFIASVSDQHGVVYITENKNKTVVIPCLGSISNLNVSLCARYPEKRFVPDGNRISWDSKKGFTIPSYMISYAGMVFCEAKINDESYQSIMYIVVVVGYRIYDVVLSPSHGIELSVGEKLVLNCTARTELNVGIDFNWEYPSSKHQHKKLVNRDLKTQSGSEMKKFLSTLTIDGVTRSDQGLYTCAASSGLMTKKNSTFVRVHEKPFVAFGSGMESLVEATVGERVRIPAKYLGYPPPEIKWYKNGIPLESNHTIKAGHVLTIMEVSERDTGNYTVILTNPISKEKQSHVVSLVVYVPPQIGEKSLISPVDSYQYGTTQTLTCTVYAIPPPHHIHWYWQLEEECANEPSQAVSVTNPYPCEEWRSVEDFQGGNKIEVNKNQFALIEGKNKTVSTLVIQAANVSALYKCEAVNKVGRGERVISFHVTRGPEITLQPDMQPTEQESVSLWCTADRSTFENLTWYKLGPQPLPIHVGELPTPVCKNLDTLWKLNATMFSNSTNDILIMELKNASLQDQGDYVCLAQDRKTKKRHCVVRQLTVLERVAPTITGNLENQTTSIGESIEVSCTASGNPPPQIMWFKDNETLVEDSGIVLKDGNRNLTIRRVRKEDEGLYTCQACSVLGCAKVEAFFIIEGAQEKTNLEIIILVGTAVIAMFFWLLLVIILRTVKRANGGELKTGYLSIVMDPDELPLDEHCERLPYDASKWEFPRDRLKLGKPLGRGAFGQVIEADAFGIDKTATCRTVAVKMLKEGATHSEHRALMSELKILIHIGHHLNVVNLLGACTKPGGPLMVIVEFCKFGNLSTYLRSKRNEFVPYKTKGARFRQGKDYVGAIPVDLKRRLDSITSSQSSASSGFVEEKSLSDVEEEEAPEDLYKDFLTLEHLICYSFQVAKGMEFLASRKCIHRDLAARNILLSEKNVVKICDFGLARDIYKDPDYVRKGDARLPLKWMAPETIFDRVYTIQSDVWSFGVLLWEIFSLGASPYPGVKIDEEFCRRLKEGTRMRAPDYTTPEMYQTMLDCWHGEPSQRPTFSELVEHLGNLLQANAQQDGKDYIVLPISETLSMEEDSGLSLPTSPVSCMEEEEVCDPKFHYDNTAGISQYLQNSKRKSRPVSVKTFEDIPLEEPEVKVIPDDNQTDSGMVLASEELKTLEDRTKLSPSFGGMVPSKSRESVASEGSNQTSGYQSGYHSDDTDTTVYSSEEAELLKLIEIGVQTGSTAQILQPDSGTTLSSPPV

SGK3 (human) = SGK3 (human) (UniProt Q96BR1)
MAP4K4 (human) = MAP4K4 (human) (UniProt O95819)
EPHA8 (human) = EPHA8 (human) (UniProt P29322)
PRKD2 (human) = PRKD2 (human) (UniProt Q9BZL6)
Sequence of PRKD2 (human) (Q9BZL6 whole entry, looked up): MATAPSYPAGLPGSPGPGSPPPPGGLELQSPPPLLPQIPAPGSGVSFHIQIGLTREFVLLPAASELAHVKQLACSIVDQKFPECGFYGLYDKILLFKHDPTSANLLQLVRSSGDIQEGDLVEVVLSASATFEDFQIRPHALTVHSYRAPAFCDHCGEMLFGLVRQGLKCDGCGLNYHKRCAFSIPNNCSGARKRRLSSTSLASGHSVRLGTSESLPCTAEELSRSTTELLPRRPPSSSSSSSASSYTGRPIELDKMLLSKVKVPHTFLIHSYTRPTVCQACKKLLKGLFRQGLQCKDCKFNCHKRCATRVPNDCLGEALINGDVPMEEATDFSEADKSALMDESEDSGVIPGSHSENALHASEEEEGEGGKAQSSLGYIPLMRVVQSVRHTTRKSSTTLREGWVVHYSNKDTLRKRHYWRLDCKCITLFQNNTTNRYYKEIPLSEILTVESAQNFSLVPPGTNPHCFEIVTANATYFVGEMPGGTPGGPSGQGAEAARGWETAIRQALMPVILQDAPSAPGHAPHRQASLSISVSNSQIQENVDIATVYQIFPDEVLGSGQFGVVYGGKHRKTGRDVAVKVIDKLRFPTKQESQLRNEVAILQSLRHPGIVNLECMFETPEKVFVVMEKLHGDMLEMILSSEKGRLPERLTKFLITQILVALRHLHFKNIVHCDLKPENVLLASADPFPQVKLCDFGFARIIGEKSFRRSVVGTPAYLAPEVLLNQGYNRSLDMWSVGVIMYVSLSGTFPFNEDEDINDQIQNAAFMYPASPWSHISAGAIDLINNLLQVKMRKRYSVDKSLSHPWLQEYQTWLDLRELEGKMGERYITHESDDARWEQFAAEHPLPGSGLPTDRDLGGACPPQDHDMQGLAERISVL

ACVRL1 (human) = ACVRL1 (human) (UniProt P37023)
PDGFRA (human) = PDGFRA (human) (UniProt P16234)
MAPK8 (human) = MAPK8 (human) (UniProt P45983)
DCLK2 (human) = DCLK2 (human) (UniProt Q8N568)
RAF1 (human) = RAF1 (human) (UniProt P04049)
Sequence of RAF1 (human) (P04049 whole entry, looked up): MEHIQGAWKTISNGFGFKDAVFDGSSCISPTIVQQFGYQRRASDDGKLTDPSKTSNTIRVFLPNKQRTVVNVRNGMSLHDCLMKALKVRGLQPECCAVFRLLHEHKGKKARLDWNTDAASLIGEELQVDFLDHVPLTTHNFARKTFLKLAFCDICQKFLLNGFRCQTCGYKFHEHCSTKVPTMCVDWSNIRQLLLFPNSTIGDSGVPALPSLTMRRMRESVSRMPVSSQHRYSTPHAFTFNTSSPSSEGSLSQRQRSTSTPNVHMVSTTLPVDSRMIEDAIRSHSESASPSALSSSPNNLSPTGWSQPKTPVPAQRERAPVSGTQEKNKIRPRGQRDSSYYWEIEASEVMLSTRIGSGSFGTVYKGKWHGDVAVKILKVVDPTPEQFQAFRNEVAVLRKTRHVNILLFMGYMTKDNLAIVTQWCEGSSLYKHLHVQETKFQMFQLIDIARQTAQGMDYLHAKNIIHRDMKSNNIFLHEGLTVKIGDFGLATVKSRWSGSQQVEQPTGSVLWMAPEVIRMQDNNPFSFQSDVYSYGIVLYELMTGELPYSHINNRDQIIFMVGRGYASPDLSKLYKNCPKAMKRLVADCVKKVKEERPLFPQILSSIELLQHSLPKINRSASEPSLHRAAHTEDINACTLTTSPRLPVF

CHEK2 (human) = CHEK2 (human) (UniProt O96017)
TAOK2 (human) = TAOK2 (human) (UniProt Q9UL54)
EPHA4 (human) = EPHA4 (human) (UniProt P54764)
DYRK1A (human) = DYRK1A (human) (UniProt Q13627)
STK10 (human) = STK10 (human) (UniProt O94804)
CDC42BPA (human) = CDC42BPA (human) (UniProt Q5VT25)
CDK1 CCNB1 (human) = CDK1 CCNB1 (human) (UniProt P06493+P14635)

## Nc1ncnc2c1cnn2-c1ccccc1
DYRK2 (human)
  residual activity: 95.6%
MAPK3 (human)
  residual activity: 90.1%
ACVR1B (human)
  residual activity: 99.4%
FGR (human)
  residual activity: 93.8%
PRKCZ (human)
  residual activity: 96.3%
MAP3K8 (human)
  residual activity: 98.6%
CAMK2G (human)
  residual activity: 105%
PNCK (human)
  residual activity: 97.5%
CSNK1G2 (human)
  residual activity: 95.1%
SGK2 (human)
  residual activity: 98.4%
MET (human)
  residual activity: 97.1%
BTK (human)
  residual activity: 98.7%
ROS1 (human)
  residual activity: 94.2%
WNK2 (human)
  residual activity: 114%
MAP3K7 TAB1 (human)
  residual activity: 98.9%
ULK1 (human)
  residual activity: 99.5%
SRC (human)
  residual activity: 96.9%
PLK3 (human)
  residual activity: 94.6%
PAK1 (human)
  residual activity: 94.2%
IKBKE (human)
  residual activity: 100%
MUSK (human)
  residual activity: 88%
MAPK11 (human)
  residual activity: 99.9%
ALK (human)
  residual activity: 90.9%
MAP4K2 (human)
  residual activity: 94.9%
AKT1 (human)
  residual activity: 103%
KDR (human)
  residual activity: 98.8%
SGK3 (human)
  residual activity: 92.3%
MAP4K4 (human)
  residual activity: 94.4%
EPHA8 (human)
  residual activity: 90.5%
PRKD2 (human)
  residual activity: 126%
ACVRL1 (human)
  residual activity: 109%
PDGFRA (human)
  residual activity: 103%
MAPK8 (human)
  residual activity: 87.1%
DCLK2 (human)
  residual activity: 101%
RAF1 (human)
  residual activity: 95.4%
CHEK2 (human)
  residual activity: 95.5%
TAOK2 (human)
  residual activity: 93%
EPHA4 (human)
  residual activity: 96.2%
DYRK1A (human)
  residual activity: 96.8%
STK10 (human)
  residual activity: 95.4%
CDC42BPA (human)
  residual activity: 90.2%

## CCCCc1c(-c2ccc(O)cc2)[nH]c2nccnc12
DYRK2 (human)
  residual activity: 93.1%
MAPK3 (human)
  residual activity: 101%
ACVR1B (human)
  residual activity: 117%
FGR (human)
  residual activity: 63%
PRKCZ (human)
  residual activity: 97.4%
MAP3K8 (human)
  residual activity: 111%
CDK1 CCNB1 (human)
  residual activity: 45.2%
CAMK2G (human)
  residual activity: 101%
PNCK (human)
  residual activity: 109%
CSNK1G2 (human)
  residual activity: 78.5%
SGK2 (human)
  residual activity: 99.4%
MET (human)
  residual activity: 82.7%
BTK (human)
  residual activity: 61.7%
ROS1 (human)
  residual activity: 26.3%
WNK2 (human)
  residual activity: 117%
MAP3K7 TAB1 (human)
  residual activity: 80.3%
ULK1 (human)
  residual activity: 82.5%
SRC (human)
  residual activity: 65.2%
PLK3 (human)
  residual activity: 90.6%
PAK1 (human)
  residual activity: 81.4%
IKBKE (human)
  residual activity: 88.3%
MUSK (human)
  residual activity: 82%
MAPK11 (human)
  residual activity: 103%
ALK (human)
  residual activity: 85%
MAP4K2 (human)
  residual activity: 28.2%
KDR (human)
  residual activity: 89.8%
SGK3 (human)
  residual activity: 95.3%
MAP4K4 (human)
  residual activity: 60.9%
EPHA8 (human)
  residual activity: 97.4%
PRKD2 (human)
  residual activity: 95.3%
ACVRL1 (human)
  residual activity: 76.2%
PDGFRA (human)
  residual activity: 95.1%
MAPK8 (human)
  residual activity: 81.9%
DCLK2 (human)
  residual activity: 99.7%
RAF1 (human)
  residual activity: 106%
CHEK2 (human)
  residual activity: 61.1%
TAOK2 (human)
  residual activity: 62.7%
EPHA4 (human)
  residual activity: 87.5%
DYRK1A (human)
  residual activity: 92.9%
STK10 (human)
  residual activity: 82.8%
CDC42BPA (human)
  residual activity: 99.3%
